We go through two molecules from ChEMBL document CHEMBL3526155, “Endoxifen, the active metabolite of tamoxifen, is a substrate of the efflux transporter P-glycoprotein (multidrug resistance 1)” (Drug Metab Dispos, 2011).

Data set [1] deals with T1, MDR1 (ABCB1) (Homo sapiens, UniProt P08183). Briefly: Activity of human MDR1 expressed in pig LLC-PK cells assessed as apparent permeability from basolateral to apical side at 5 uM after 1 to 4 hrs by LC-MS/MS analysis. It counts as ADME, cell-based. As to conditions: LLC-PK1; call rule not given here.
T1 sequence (P08183 whole entry): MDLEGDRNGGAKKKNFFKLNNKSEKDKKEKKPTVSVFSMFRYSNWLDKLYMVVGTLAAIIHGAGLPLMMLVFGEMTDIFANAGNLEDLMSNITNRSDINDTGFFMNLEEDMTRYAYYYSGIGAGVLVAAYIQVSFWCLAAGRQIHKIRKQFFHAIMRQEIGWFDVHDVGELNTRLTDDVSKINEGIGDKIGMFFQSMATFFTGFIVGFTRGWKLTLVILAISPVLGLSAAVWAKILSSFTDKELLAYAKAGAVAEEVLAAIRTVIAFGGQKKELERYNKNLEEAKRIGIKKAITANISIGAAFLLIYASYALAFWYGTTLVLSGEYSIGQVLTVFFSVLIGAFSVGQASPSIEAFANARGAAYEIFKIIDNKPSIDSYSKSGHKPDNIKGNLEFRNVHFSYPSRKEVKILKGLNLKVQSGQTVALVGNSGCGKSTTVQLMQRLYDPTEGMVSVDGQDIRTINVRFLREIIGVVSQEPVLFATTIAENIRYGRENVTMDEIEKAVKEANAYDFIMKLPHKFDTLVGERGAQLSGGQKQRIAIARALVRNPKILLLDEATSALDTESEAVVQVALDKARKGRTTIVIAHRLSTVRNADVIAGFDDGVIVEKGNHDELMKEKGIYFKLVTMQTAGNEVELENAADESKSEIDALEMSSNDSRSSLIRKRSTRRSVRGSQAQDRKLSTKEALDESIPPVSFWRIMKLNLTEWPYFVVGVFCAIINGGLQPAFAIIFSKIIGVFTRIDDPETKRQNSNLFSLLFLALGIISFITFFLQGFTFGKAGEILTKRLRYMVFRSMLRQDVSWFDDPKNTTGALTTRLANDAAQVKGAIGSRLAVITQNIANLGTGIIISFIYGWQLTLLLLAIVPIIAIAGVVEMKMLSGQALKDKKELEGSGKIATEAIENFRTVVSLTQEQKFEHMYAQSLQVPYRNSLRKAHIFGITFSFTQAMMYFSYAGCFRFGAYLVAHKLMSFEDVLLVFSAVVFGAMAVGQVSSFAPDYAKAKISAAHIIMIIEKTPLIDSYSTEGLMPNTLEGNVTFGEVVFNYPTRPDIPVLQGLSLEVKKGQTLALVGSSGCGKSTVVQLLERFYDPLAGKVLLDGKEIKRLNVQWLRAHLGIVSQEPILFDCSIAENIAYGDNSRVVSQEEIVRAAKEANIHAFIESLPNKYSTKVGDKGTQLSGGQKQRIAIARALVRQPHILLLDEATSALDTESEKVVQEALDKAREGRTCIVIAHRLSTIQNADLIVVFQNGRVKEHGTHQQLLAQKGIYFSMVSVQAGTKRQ
The nature of data set [2]: Efflux ratio of apparent permeability from basolateral to apical to apical to basolateral side in pig LLC-PK cells at 5 uM after 1 to 4 hrs by LC-MS/MS analysis. The format is ADME, cell-based, Sus scrofa. As to conditions: LLC-PK1.
Data set [3] has as its system Brain. Briefly: Drug uptake in wild-type CF-1 mouse brain at 5 mg/kg, po after 0.5 to 4 hrs by LC-MS/MS analysis. It counts as ADME, organism-based. Further details: dose 5 mg/kg, route oral. As to conditions: in vivo.
The target of data set [4] is T1, MDR1 (ABCB1). Briefly: Activity of human MDR1 expressed in pig LLC-PK cells assessed as efflux ratio of apparent permeability from basolateral to apical to apical to basolateral side at 5 uM after 1 to 4 hrs by LC-MS/MS analysis. It counts as ADME, cell-based. Particulars: LLC-PK1.
Data set [5] is described as follows: Ratio of drug level in brain to plasma in MDR1A-deficient CF-1 mouse at 5 mg/kg, po after 0.5 to 4 hrs by LC-MS/MS analysis. The format is ADME, organism-based. Also noted: dose 5 mg/kg, route oral. As to conditions: read-out: BPR.
Data set [6] is described as follows: Apparent permeability from basolateral to apical side in pig LLC-PK cells at 5 uM after 1 to 4 hrs by LC-MS/MS analysis. It counts as ADME, cell-based, Sus scrofa. As to conditions: LLC-PK1.
Data set [7] concerns Plasma. Briefly: Drug uptake in wild-type CF-1 mouse plasma at 5 mg/kg, po after 0.5 to 4 hrs by LC-MS/MS analysis. The format is ADME, organism-based. Further details: dose 5 mg/kg, route oral. Particulars: in vivo.
Data set [8] concerns Brain. Kind of data set: Drug uptake in MDR1A-deficient CF-1 mouse brain at 5 mg/kg, po after 0.5 to 4 hrs by LC-MS/MS analysis relative to wild-type. As to conditions: in vivo. Further details: dose 5 mg/kg, route oral. The format is ADME, organism-based.
In data set [9] the target is T1, MDR1 (ABCB1). Briefly: Activity of human MDR1 expressed in pig LLC-PK cells assessed as apparent permeability from apical to basolateral side at 5 uM after 1 to 4 hrs by LC-MS/MS analysis. As to conditions: LLC-PK1. It counts as ADME, cell-based.
Data set [10] relates to Brain. Briefly: Drug uptake in MDR1A-deficient CF-1 mouse brain at 5 mg/kg, po after 0.5 to 4 hrs by LC-MS/MS analysis. The format is ADME, organism-based. Further details: dose 5 mg/kg, route oral. Particulars: in vivo.
In data set [11] the test system is Liver. Briefly: Drug uptake in MDR1A-deficient CF-1 mouse liver at 5 mg/kg, po after 0.5 to 4 hrs by LC-MS/MS analysis. As to conditions: in vivo. Further details: dose 5 mg/kg, route oral. The format is ADME, organism-based.
The subject of data set [12] is Liver. Kind of data set: Drug uptake in wild-type CF-1 mouse liver at 5 mg/kg, po after 0.5 to 4 hrs by LC-MS/MS analysis. The format is ADME, organism-based. Further details: dose 5 mg/kg, route oral. Particulars: in vivo.
Data set [13] concerns Plasma. Kind of data set: Drug uptake in MDR1A-deficient CF-1 mouse plasma at 5 mg/kg, po after 0.5 to 4 hrs by LC-MS/MS analysis. Further details: dose 5 mg/kg, route oral. As to conditions: in vivo. It counts as ADME, organism-based.
Data set [14] can be described thus: Apparent permeability from apical to basolateral side in pig LLC-PK cells at 5 uM after 1 to 4 hrs by LC-MS/MS analysis. It counts as ADME, cell-based, Sus scrofa. Particulars: LLC-PK1.

As usually defined, the Papp B→A is the apparent permeability from the basolateral to the apical side of a cell layer. As for `C[C@H]1O[C@@H](O[C@H]2[C@@H](O)C[C@H](O[C@H]3[C@@H](O)C[C@H](O[C@H]4CC[C@@]5(C)[C@H](CC[C@@H]6[C@@H]5C[C@@H](O)[C@]5(C)[C@@H](C7=CC(=O)OC7)CC[C@]65O)C4)O[C@@H]3C)O[C@@H]2C)C[C@H](O)[C@@H]1O` [DIGOXIN], the Papp B→A at 5 µM at MDR1 (ABCB1) [1] was 6.74 ×10⁻⁶ cm/s.
A word on the efflux ratio: it is the permeability from basolateral to apical divided by that in the opposite direction, in the common usage. The Papp A→B is how fast a substance crosses the layer from the apical side. Turning to `CC/C(=C(\c1ccc(O)cc1)c1ccc(OCCNC)cc1)c1ccccc1` [ENDOXIFEN], the efflux ratio at 5 µM in data set [2] was found to be 1.07; on MDR1 (ABCB1) [4], 2.67. Also, the Drug uptake entry in the data set with Brain [3], in the data set with Plasma [7], in the data set on Brain [10], in the data set on Liver [11], in the data set on Liver [12] and with Plasma [13] was “Active” in each case. Besides, the Kp in [5] is above 10. For the same molecule, the Papp B→A at 5 µM in data set [6] is 2.15 ×10⁻⁶ cm/s; at MDR1 (ABCB1) [1] it was 2.77 ×10⁻⁶ cm/s. The Ratio with Brain [8] was 20. The Papp A→B at 5 µM on MDR1 (ABCB1) [9] came out at 1.1 ×10⁻⁶ cm/s; in data set [14], 1.83 ×10⁻⁶ cm/s.
